# Results from EP4733388A1, “LACTOBACILLUS RHAMNOSUS STRAIN, VIABLE BACTERIA FORMULATION AND PREPARATION METHOD THEREFOR AND USE THEREOF” (priority 2023, dated 2024).
# What was measured:
# [1] = system: L. rhamnosus GG strain; test: Antibiotic susceptibility test, K-B agar method (disc diffusion); assay type: cell-based, Lactobacillus rhamnosus; conditions: standard antibiotic disc, 37°C, 48 h; CLSI criteria, breakpoints in mm per antibiotic in c1-c3; note: key: S (susceptible) represents sensitivity; I (intermediate) represents moderate sensitivity; R (resistance) represents drug resistance
# Procedure: (§1) The drug susceptibility test was performed using the K-B agar method recommended by the National Committee for Clinical Laboratory Standards (NCCLS), the drug sensitivity test, as follows: • (1) The commercial strain L. rhamnosus GG strain was selected as the control strain. The L. rhamnosus HOM1213 strain and the GG strain were inoculated in MRS liquid medium at an inoculation amount of 3% of the total amount of the medium, cultured at 37°C for 24 hours, and activated continuously for 3 generations for later use. • (2) 1 mL of bacterial solution (1.5 × 10^8 CFU/mL) and 15 mL of MRS solid medium were mixed, and placed in a sterile culture dish, and mixed uniformly. A standard antibiotic susceptibility testing disc was placed after the plate was solidified, and cultured at 37°C for 48 h, and the diameter of the inhibition zone was measured and recorded.
# (§2) Table 3. Results of susceptibility test of L. rhamnosus HOM1213 strain on nine antibiotics.
# [2] = system: L. rhamnosus HOM1213 strain; test: as above; assay type: cell-based, Lactobacillus rhamnosus; conditions: for Susceptibility (class by Diameter of Inhibition Zone), HOM1213 Group: standard antibiotic disc, 37°C, 48 h, CLSI criteria, breakpoints in mm per antibiotic in c1-c3; for Susceptibility of L. rhamnosus HOM1213 strain to the antibiotic, in words: summary of Table 3; for Susceptibility (class by Diameter of Inhibition Zone), HOM1213 Group: key: S (susceptible) represents sensitivity; I (intermediate) represents moderate sensitivity; R (resistance) represents drug resistance
# Procedure: as §1, §2
# [3] = Hydroxyl radical scavenging test (·OH); conditions: strain suspension 2 × 10^10 CFU/ml; vitamin C 0.05%; mean ± SD
# Procedure: (§3) The L. rhamnosus HOM1213 isolated in Example 1 and GG strains were inoculated in an MRS liquid medium at an inoculation amount of 3% of the total amount of the medium, fermented and cultured at 37°C for 24 h, activated continuously for 3 generations. It was centrifuged at 11000 rpm for 10 min, and the bacterial cells were washed with PBS buffer, resuspended and centrifuged, repeated three times. The count of bacteria was adjusted to 2 × 10^10 CFU/ml for later use. Indicators included total antioxidant capacity (T-AOC), superoxide dismutase (SOD), glutathione peroxidase (GSH-Px), glutathione (GSH), hydroxyl radical scavenging test (·OH), and DPPH radical scavenging test. The DPPH free radical scavenging test used a colorimetric method, and its principle was that the free radical scavenger donated an electron to pair with the lone pair electron of the DPPH free radicals, so that its own color changed from purple to yellow. Its absorbance at the wavelength of 517 nm decreased, and the degree of change has a linear relation to the degree of free radical scavenging, that is, the stronger the scavenging ability of the free radical scavenger, the lower the absorbance. Other indicators were determined by using a kit purchased from Nanjing Jiancheng Company, according to operation instructions. […]
# [4] = In vitro antioxidant capacity test: total antioxidant capacity (T-AOC); conditions: strain suspension 2 × 10^10 CFU/ml; vitamin C 0.05%; mean ± SD
# Procedure: as §3
# [5] = DPPH radical scavenging test (colorimetric, 517 nm); conditions: strain suspension 2 × 10^10 CFU/ml; vitamin C 0.05%; mean ± SD
# Procedure: as §3
# [6] = system: superoxide dismutase (SOD); test: In vitro antioxidant capacity test: superoxide dismutase (SOD); conditions: strain suspension 2 × 10^10 CFU/ml; vitamin C 0.05%; mean ± SD
# Procedure: as §3
# [7] = system: glutathione (GSH); test: In vitro antioxidant capacity test: glutathione (GSH); conditions: strain suspension 2 × 10^10 CFU/ml; vitamin C 0.05%; mean ± SD
# Procedure: as §3
compound,measurement,setting,value
CC1(C)S[C@@H]2[C@H](NC(=O)[C@H](N)c3ccccc3)C(=O)N2[C@H]1C(=O)O [Ampicillin],"Susceptibility (class by Diameter of Inhibition Zone), GG Group",[1],R
same,"Susceptibility (class by Diameter of Inhibition Zone), HOM1213 Group",[2],R
same,"Susceptibility of L. rhamnosus HOM1213 strain to the antibiotic, in words",[2],resistant
O=C(N[C@H](CO)[C@H](O)c1ccc([N+](=O)[O-])cc1)C(Cl)Cl [Chloramphenicol],"Susceptibility (class by Diameter of Inhibition Zone), GG Group",[1],S
same,"Susceptibility (class by Diameter of Inhibition Zone), HOM1213 Group",[2],S
CCC[C@@H]1C[C@@H](C(=O)N[C@@H]([C@H]2O[C@H](SC)[C@H](O)[C@@H](O)[C@H]2O)[C@H](C)Cl)N(C)C1 [Clindamycin],"Susceptibility (class by Diameter of Inhibition Zone), GG Group",[1],S
same,"Susceptibility (class by Diameter of Inhibition Zone), HOM1213 Group",[2],S
CC[C@H]1OC(=O)[C@H](C)[C@@H](O[C@H]2C[C@@](C)(OC)[C@@H](O)[C@H](C)O2)[C@H](C)[C@@H](O[C@@H]2O[C@H](C)C[C@H](N(C)C)[C@H]2O)[C@](C)(O)C[C@@H](C)C(=O)[C@H](C)[C@@H](O)[C@]1(C)O [Erythromycin],"Susceptibility (class by Diameter of Inhibition Zone), GG Group",[1],S
same,"Susceptibility (class by Diameter of Inhibition Zone), HOM1213 Group",[2],S
NC[C@H]1O[C@H](O[C@H]2[C@H](O)[C@@H](O[C@H]3O[C@H](CO)[C@@H](O)[C@H](N)[C@H]3O)[C@H](N)C[C@@H]2N)[C@H](O)[C@@H](O)[C@@H]1O [Kanamycin],"Susceptibility (class by Diameter of Inhibition Zone), GG Group",[1],R
same,"Susceptibility (class by Diameter of Inhibition Zone), HOM1213 Group",[2],R
[H]/N=C(/N)N[C@H]1[C@H](O)[C@@H](O)[C@H](O[C@@H]2O[C@@H](C)[C@](O)(C=O)[C@H]2O[C@@H]2O[C@@H](CO)[C@H](O)[C@@H](O)[C@@H]2NC)[C@@H](N/C(N)=N\[H])[C@@H]1O [Streptomycin],"Susceptibility (class by Diameter of Inhibition Zone), GG Group",[1],I
same,"Susceptibility (class by Diameter of Inhibition Zone), HOM1213 Group",[2],I
same,"Susceptibility of L. rhamnosus HOM1213 strain to the antibiotic, in words",[2],moderately resistant
CN(C)[C@@H]1C(O)=C(C(N)=O)C(=O)[C@@]2(O)C(O)=C3C(=O)c4c(O)cccc4[C@@](C)(O)[C@H]3C[C@@H]12 [Tetracycline],"Susceptibility (class by Diameter of Inhibition Zone), GG Group",[1],S
same,"Susceptibility (class by Diameter of Inhibition Zone), HOM1213 Group",[2],S
CN[C@H](CC(C)C)C(=O)N[C@H]1C(=O)N[C@@H](CC(N)=O)C(=O)N[C@H]2C(=O)N[C@H]3C(=O)N[C@H](C(=O)N[C@H](C(=O)O)c4cc(O)cc(O)c4-c4cc3ccc4O)[C@H](O)c3ccc(c(Cl)c3)Oc3cc2cc(c3O[C@@H]2O[C@H](CO)[C@@H](O)[C@H](O)[C@H]2O[C@H]2C[C@](C)(N)[C@H](O)[C@H](C)O2)Oc2ccc(cc2Cl)[C@H]1O [Vancomycin],"Susceptibility (class by Diameter of Inhibition Zone), GG Group",[1],R
same,"Susceptibility (class by Diameter of Inhibition Zone), HOM1213 Group",[2],R
same,"Susceptibility of L. rhamnosus HOM1213 strain to the antibiotic, in words",[2],resistant
O=C1O[C@H]([C@@H](O)CO)C(O)=C1O [Vitamin C],·OH Scavenging Rate (%),[3],36.70±1.33%
same,T-AOC,[4],16.90±1.42 U/mL
same,DPPH Scavenging Rate (%),[5],96.14±0.08%
same,SOD,[6],18.07±1.08 U/mL
same,GSH,[7],0.33±0.06 mgGSH/L
Gentamicin,"Susceptibility (class by Diameter of Inhibition Zone), GG Group",[1],R
same,"Susceptibility (class by Diameter of Inhibition Zone), HOM1213 Group",[2],R
same,"Susceptibility of L. rhamnosus HOM1213 strain to the antibiotic, in words",[2],resistant
